Tests used:
[1] = tested on: IL-17A in Human peripheral mononuclear cells; assay: Human PBMC IL-17A assay; format: cell-based; conditions: 72 h, EC50, antiCD3/antiCD28-coated beads, 3 days, alpha-LISA
Method: This assay measures the IL-17A inhibitory potential of test compounds in Human peripheral mononuclear cells.
Peripheral blood mononuclear cells (PBMC) were isolated from human buffy coats using density grade centrifugation (Lymphoprep, Medinor), washed twice in PBS and frozen at −150° C. for later use.
Test compounds were diluted in DMSO and 70 nL of titrated test and reference compounds were transferred by the Echo liquid handling system to a 384-well assay plate in to give a final concentration of 0.1% DMSO in the wells.
The PBMC were thawed, washed and suspended in RPMI-1640 supplemented with pen/strep, glutamax and 10% bovine calf serum. The cells were mixed with antiCD3/antiCD28-coated beads (1 cells pr one bead) (Milteney T-cell expansion kit), and immediately thereafter the cells were pipetted to the plate at 130,000c/well. The plate was incubated for 3 days in humidified air/CO2 (95%/5%) On day 3 the level of IL-17A in the culture supernatant is measured using alpha-LISA kit (Perkin Elmer). Cell viability was measured by adding 6 uL pr well Prestoblue© (Life Technologies) and incubating for 2 hours followed by fluorescent measurement (Ex535/Em615). EC50 values were calculated using a 4-parameter non-linear regression curve-fitting model. Donors may be pre-screened in order to select PBMC with a high secretion of IL-17A.

[2] = target: T1, human RORgt nuclear receptor (RORgT ligand binding domain protein) (Homo sapiens, UniProt P51449); assay: ROR-gamma binding assay (Scintillation Proximity Assay, displacement of [3H]-25-hydroxycholesterol); conditions: EC50, SPA, 15 nM [3H]-25-Hydroxycholesterol, RORgT LBD 12 nM
T1 construct: purchased Proteros Biostructures GmbH
T1 sequence (P51449 with tags, fused parts or gaps): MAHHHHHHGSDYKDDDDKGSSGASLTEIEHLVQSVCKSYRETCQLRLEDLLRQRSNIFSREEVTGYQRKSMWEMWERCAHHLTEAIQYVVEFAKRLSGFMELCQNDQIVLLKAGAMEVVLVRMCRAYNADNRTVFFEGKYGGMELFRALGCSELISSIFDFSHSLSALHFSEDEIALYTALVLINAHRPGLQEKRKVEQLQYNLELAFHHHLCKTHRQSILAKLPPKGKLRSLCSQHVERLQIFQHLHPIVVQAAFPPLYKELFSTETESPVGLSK
Method: This assay is used to evaluate the binding affinity of compounds to the ligand-binding pocket of the human RORgt nuclear receptor based on displacement of a radio-ligand. The EC50 values are calculated using a four parameter fit. Compounds binding with high affinity to RORgt will have low EC50 values.
The assay is a Scintillation Proximity Assay (SPA) that involves competition between an unlabeled test compound and tritium-labeled 25-hydroxycholesterol for binding to RORgT ligand binding domain (LBD) protein immobilized on the surface of SPA beads. These beads contain a scintillant that emits light if excited by a radioactive particle, and this light is detected using a scintillation counter. In this assay, tritium-labelled 25-hydroxycholesterol is used as radiotracer.
400 nL of titrated test and reference compounds in DMSO were transferred by the Echo liquid handling system to a 384-well assay plate followed by addition of 5 μL [3H]-25-Hydroxycholesterol (Perkin Elmer) and 35 μL diluted RORgT LBD protein with the following amino acid sequence (HIS-FLG-tag): MAHHHHHHGSDYKDDDDKGSSGASLTEIEHLVQSVCKSYRETCQLRLEDLLRQRSNIFSREEVTGYQRKSMWEMWERCAHHLTEAIQYVVEFAKRLSGFMELCQNDQIVLLKAGAMEVVLVRMCRAYNADNRTVFFEGKYGGMELFRALGCSELISSIFDFSHSLSALHFSEDEIALYTALVLINAHRPGLQEKRKVEQLQYNLELAFHHHLCKTHRQSILAKLPPKGKLRSLCSQHVERLQIFQHLHPIVVQAAFPPLYKELFSTETESPVGLSK (SEQ ID NO: 1) (Purchased from Proteros Biostructures GmbH). After 30 min of preincubation, 40 μL of HIS-TAG PVT SPA beads (Perkin Elmer) were added. The plates were then incubated for minimum 4 hours at room temperature in darkness before measuring the SPA signal using a MicroBeta plate scintillation counter. Final assay conditions were: 50 mM HEPES pH 7.4, 150 mM NaCl, 5 mM MgCl2, 0.1% BSA, 4 μg/well HIS-TAG PVT SPA Beads, 30 ng/well RORgT LBD (equal to a final concentration of 12 nM), 15 nM [^3H]-25-Hydroxycholesterol, 0.5% DMSO and varying concentrations of test compound in a total volume of 80 μL/well. EC50 values were calculated using a 4-parameter non-linear regression curve-fitting model.

[3] = tested on: IL-17A levels in human peripheral blood; assay: tissue or blood; format: cell-based; conditions: 72 h, read-out: Human Whole blood IL-17A (nM)

Question: Which EC50 [1] does the source give for `COCc1nnc(Nc2cc(Cl)cc(CN3CCN(C(=O)c4ccccc4)[C@@H](C)C3)c2C)o1` [Example 2, [(2S)-4-[[5-chloro-3-[[5-(methoxymethyl)-1,3,4-oxadiazol-2-yl]amino]-2-methyl-phenyl]methyl]-2-methyl-piperazin-1-yl]-phenyl-methanone] here?
Answer: Its EC50 is 137 nM.

Question: And the EC50 [2]?
Answer: Its EC50 is 29 nM.

Question: And the EC50 [3]?
Answer: The EC50 was 454 nM.

Question: How did the EC50 [1] turn out when `Cc1cc(CN2CCN(C(=O)C3CCC(F)(F)C3)[C@@H](C)C2)c(C)c(Nc2nnc(CC#N)o2)c1` (stereo partly drawn) [Example 17, 2-[5-[3-[[(3S)-4-(3,3-difluorocyclopentanecarbonyl)-3-methyl-piperazin-1-yl]methyl]-2,5-dimethyl-anilino]-1,3,4-oxadiazol-2-yl]acetonitrile] was run?
Answer: Its EC50 is 230 nM.

Question: What about the EC50 [2] of the same compound?
Answer: The EC50 was 54.5 nM.

Question: What about the EC50 [3] of the same compound?
Answer: Its EC50 is 131 nM.

Question: What does the source list for `Cc1cc(CN2CCN(C(=O)OC(C)C)[C@@H](C)C2)c(C)c(Nc2nnc(C)o2)c1` [Example 35, isopropyl (2S)-4-[[2,5-dimethyl-3-[(5-methyl-1,3,4-oxadiazol-2-yl)amino]phenyl]methyl]-2-methyl-piperazine-1-carboxylate]?
Answer: EC50 [1]: 106 nM; EC50 [2]: 33.9 nM; EC50 [3]: 499 nM

Question: What does the source list for `Cc1c(CN2CCN(C(=O)OC(C)C)[C@@H](C)C2)cc(Cl)cc1Nc1nnc(C2CNC(=O)C2)o1` (stereo partly drawn) [Example 67, isopropyl (2S)-4-[[5-chloro-2-methyl-3-[[5-(5-oxopyrrolidin-3-yl)-1,3,4-oxadiazol-2-yl]amino]phenyl]methyl]-2-methyl-piperazine-1-carboxylate]?
Answer: EC50 [1]: 47.2 nM; EC50 [2]: 62.2 nM; EC50 [3]: 597 nM

Question: Which results are given for `Cc1cc(CN2CCN(C(=O)OC(C)C)[C@@H](C)C2)c(C)c(Nc2nnc(C3CNC(=O)C3)o2)c1` (stereo partly drawn) [Example 51, isopropyl (2S)-4-[[2,5-dimethyl-3-[[5-(5-oxopyrrolidin-3-yl)-1,3,4-oxadiazol-2-yl]amino]phenyl]methyl]-2-methyl-piperazine-1-carboxylate]?
Answer: EC50 [1]: 216 nM; EC50 [2]: 64.4 nM; EC50 [3]: 266 nM

Question: How did the EC50 [1] turn out when `Cc1cc(CN2CCN(C(=O)C3CCC(F)(F)C3)[C@@H](C)C2)c(C)c(Nc2nnc([C@@H](C)O)o2)c1` (stereo partly drawn) [Example 25, (3,3-difluorocyclopentyl)-[(2S)-4-[[3-[[5-[(1R)-1-hydroxyethyl]-1,3,4-oxadiazol-2-yl]amino]-2,5-dimethyl-phenyl]methyl]-2-methyl-piperazin-1-yl]methanone] was run?
Answer: The EC50 was 258 nM.

Question: What about the EC50 [2] of the same compound?
Answer: Its EC50 is 159 nM.

Question: What about the EC50 [3] of the same compound?
Answer: The EC50 was 191 nM.

Question: Which results are given for `Cc1cc(CN2CCN(C(=O)OC(C)C)[C@@H](C)C2)c(C)c(Nc2nnc([C@@H]3CNC(=O)O3)o2)c1` [Example 52, isopropyl (2S)-4-[[2,5-dimethyl-3-[[5-[(5S)-2-oxooxazolidin-5-yl]-1,3,4-oxadiazol-2-yl]amino]phenyl]methyl]-2-methyl-piperazine-1-carboxylate]?
Answer: EC50 [1]: 134 nM; EC50 [2]: 42.1 nM; EC50 [3]: 256 nM

Question: `Cc1cc(CN2CCN(C(=O)C3CCCC3)[C@@H](C)C2)c(C)c(Nc2nnc([C@@H](C)O)o2)c1` [Example 24, cyclopentyl-[(2S)-4-[[3-[[5-[(1R)-1-hydroxyethyl]-1,3,4-oxadiazol-2-yl]amino]-2,5-dimethyl-phenyl]methyl]-2-methyl-piperazin-1-yl]methanone] was tested. Which EC50 [1] did it give?
Answer: Its EC50 is 35.9 nM.

Question: What about the EC50 [2] of the same compound?
Answer: Its EC50 is 38.6 nM.

Question: And the EC50 [3]?
Answer: The EC50 was 112 nM.

Question: Which EC50 [1] does the source give for `Cc1cc(CN2CCN(C(=O)OC(C)C)[C@@H](C)C2)c(C)c(Nc2nnc(-c3ccnn3C)o2)c1` [Example 59, isopropyl (2S)-4-[[2,5-dimethyl-3-[[5-(2-methylpyrazol-3-yl)-1,3,4-oxadiazol-2-yl]amino]phenyl]methyl]-2-methyl-piperazine-1-carboxylate] here?
Answer: Its EC50 is 123 nM.

Question: What about the EC50 [2] of the same compound?
Answer: The EC50 was 25.7 nM.

Question: What about the EC50 [3] of the same compound?
Answer: The EC50 was 211 nM.

Question: How did the EC50 [1] turn out when `Cc1c(CN2CCN(C(=O)c3ccccc3)[C@@H](C)C2)cc(Cl)cc1Nc1nnc(CCC#N)o1` [Example 7, 3-[5-[3-[[(3S)-4-benzoyl-3-methyl-piperazin-1-yl]methyl]-5-chloro-2-methyl-anilino]-1,3,4-oxadiazol-2-yl]propanenitrile] was run?
Answer: Its EC50 is 49.8 nM.

Question: What about the EC50 [2] of the same compound?
Answer: The EC50 was 33 nM.

Question: What about the EC50 [3] of the same compound?
Answer: The EC50 was 219 nM.

Question: For `Cc1c(CN2CCN(C(=O)OC(C)C)[C@@H](C)C2)cc(Cl)cc1Nc1nnc(C2CCCOC2)o1` (stereo partly drawn) [Example 44, isopropyl (2S)-4-[[5-chloro-2-methyl-3-[(5-tetrahydropyran-3-yl-1,3,4-oxadiazol-2-yl)amino]phenyl]methyl]-2-methyl-piperazine-1-carboxylate], which EC50 [1] is on record?
Answer: The EC50 was 26 nM.

Question: And the EC50 [2]?
Answer: Its EC50 is 22.7 nM.

Question: And the EC50 [3]?
Answer: Its EC50 is 330 nM.

Question: With `CCOC(=O)N1CCN(Cc2cc(C)cc(Nc3nnc([C@@H](C)O)o3)c2C)C[C@@H]1C` [Example 71, ethyl (2S)-4-[[3-[[5-[(1R)-1-hydroxyethyl]-1,3,4-oxadiazol-2-yl]amino]-2,5-dimethyl-phenyl]methyl]-2-methyl-piperazine-1-carboxylate] as the compound, how does the EC50 [1] read?
Answer: The EC50 was 223 nM.

Question: What about the EC50 [2] of the same compound?
Answer: Its EC50 is 62 nM.

Question: What about the EC50 [3] of the same compound?
Answer: The EC50 was 307 nM.

Question: How did the EC50 [1] turn out when `Cc1c(CN2CCN(C(=O)OC(C)C)[C@@H](C)C2)cc(Cl)cc1Nc1nnc([C@@H]2CC(=O)N2)o1` [Example 53, isopropyl (2S)-4-[[5-chloro-2-methyl-3-[[5-[(2S)-4-oxoazetidin-2-yl]-1,3,4-oxadiazol-2-yl]amino]phenyl]methyl]-2-methyl-piperazine-1-carboxylate] was run?
Answer: The EC50 was 93.9 nM.

Question: What about the EC50 [2] of the same compound?
Answer: Its EC50 is 68.2 nM.

Question: And the EC50 [3]?
Answer: The EC50 was 247 nM.

Question: For `Cc1c(CN2CCN(C(=O)c3ccccc3)[C@@H](C)C2)cc(Cl)cc1Nc1nnc(C2CC2)o1` [Example 5, [(2S)-4-[[5-chloro-3-[(5-cyclopropyl-1,3,4-oxadiazol-2-yl)amino]-2-methyl-phenyl]methyl]-2-methyl-piperazin-1-yl]-phenyl-methanone], which EC50 [1] is on record?
Answer: Its EC50 is 69.7 nM.

Question: And the EC50 [2]?
Answer: The EC50 was 22.6 nM.

Question: What about the EC50 [3] of the same compound?
Answer: The EC50 was 385 nM.

Question: Which results are given for `Cc1cc(CN2CCN(C(=O)C3CC3C)[C@@H](C)C2)c(C)c(Nc2nnc([C@@H](C)O)o2)c1` (stereo partly drawn) [Example 23, [(2S)-4-[[3-[[5-[(1R)-1-hydroxyethyl]-1,3,4-oxadiazol-2-yl]amino]-2,5-dimethyl-phenyl]methyl]-2-methyl-piperazin-1-yl]-(2-methylcyclopropyl)methanone]?
Answer: EC50 [1]: 368 nM; EC50 [2]: 125 nM; EC50 [3]: 238 nM

Question: Which EC50 [1] does the source give for `Cc1cc(CN2CCN(C(=O)C3CCC(F)(F)C3)[C@@H](C)C2)c(C)c(Nc2nnc([C@H]3NCC[C@H]3O)o2)c1` (stereo partly drawn) [Example 79, (3,3-difluorocyclopentyl)-[(2S)-4-[[3-[[5-[(2S,3R)-3-hydroxypyrrolidin-2-yl]-1,3,4-oxadiazol-2-yl]amino]-2,5-dimethyl-phenyl]methyl]-2-methyl-piperazin-1-yl]methanone] here?
Answer: Its EC50 is 1220 nM.

Question: What about the EC50 [2] of the same compound?
Answer: The EC50 was 274 nM.

Question: What about the EC50 [3] of the same compound?
Answer: Its EC50 is 3530 nM.

Question: Which results are given for `COCc1nnc(Nc2cc(Cl)cc(CN3CCN(C(=O)C4CCC(F)(F)C4)[C@@H](C)C3)c2C)o1` (stereo partly drawn) [Example 10, [(2S)-4-[[5-chloro-3-[[5-(methoxymethyl)-1,3,4-oxadiazol-2-yl]amino]-2-methyl-phenyl]methyl]-2-methyl-piperazin-1-yl]-(3,3-difluorocyclopentyl)methanone]?
Answer: EC50 [1]: 173 nM; EC50 [2]: 45.4 nM; EC50 [3]: 296 nM
